Laboratory results as given in patent US20200375943A1 (priority 2019, published 2020).
Like-named read-outs stand apart in the source and are kept apart here.

How the values were obtained:
SVCT2 [1] = target: T1, SVCT2 (Homo sapiens, UniProt Q9UGH3); set-up: endogenous in cells; host or cells: HTR-8/SVneo human trophoblast cell line; details: cited from earlier work; for inhibitory action for LAA transporter SVCT2: HTR-8/SVneo cells; for uptake of LAA via SVCT2: trophoblast cells
Target sequence in this assay (Q9UGH3 whole entry): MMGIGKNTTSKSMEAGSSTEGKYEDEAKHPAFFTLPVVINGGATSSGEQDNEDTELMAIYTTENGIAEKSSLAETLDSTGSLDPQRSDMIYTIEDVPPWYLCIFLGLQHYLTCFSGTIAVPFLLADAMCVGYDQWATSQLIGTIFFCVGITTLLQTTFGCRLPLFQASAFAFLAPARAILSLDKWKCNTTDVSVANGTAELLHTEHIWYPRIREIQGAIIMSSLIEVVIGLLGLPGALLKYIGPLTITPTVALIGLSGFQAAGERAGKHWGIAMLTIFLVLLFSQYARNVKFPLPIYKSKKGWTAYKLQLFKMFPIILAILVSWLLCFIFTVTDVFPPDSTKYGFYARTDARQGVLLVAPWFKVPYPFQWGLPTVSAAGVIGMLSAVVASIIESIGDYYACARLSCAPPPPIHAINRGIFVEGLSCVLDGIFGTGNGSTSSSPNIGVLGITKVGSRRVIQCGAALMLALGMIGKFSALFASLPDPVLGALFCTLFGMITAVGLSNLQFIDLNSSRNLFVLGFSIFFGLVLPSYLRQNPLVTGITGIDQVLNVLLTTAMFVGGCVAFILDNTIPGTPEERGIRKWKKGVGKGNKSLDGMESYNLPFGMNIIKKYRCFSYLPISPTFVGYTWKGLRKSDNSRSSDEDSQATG

leukemic blast cells = experiment: Phase I/II clinical trial of LAA depletion alternating with LAA supplementation; format: in vivo, human
Excerpt: No. 12, Blood. 2000 (see Reference 9).
That is, in the example, a leukemia patient first received a chemotherapy and subsequently received the LAA supplementation. […] The noted sharp decline is much more precipitous than what can be observed with chemotherapy.
In the example, the significant improvement is also noted that there was a total of 8 out of 16 patients in the Phase I/II clinical trial responding (p=0.007).

sarcoma tumors = details: oral gavage, cited from earlier work
[2] = cited from earlier work
human leukemic cells = details: bone marrows from 259 patients; cited from earlier work
SVCT2 [3] = target: T1, SVCT2; set-up: endogenous in cells; host or cells: bone marrow stromal cells (BMSCs); details: 600 uM, BMSCs; cited from earlier work
Target sequence in this assay (Q9UGH3 whole entry, species assumed): as the sequence (Q9UGH3 whole entry) above

SVCT1(h) = target: T2, SVCT1(h) (Homo sapiens, UniProt Q9UHI7); details: 50 uM, ascorbate 10-400 uM; cited from earlier work
T2 construct: expressed in transfected cells

SVCT2 [4] = details: 200 uM, cortical or cerebellar neurons; cited from earlier work
[5] = humans, oral; cited from earlier work

T2 sequence (Q9UHI7 whole entry): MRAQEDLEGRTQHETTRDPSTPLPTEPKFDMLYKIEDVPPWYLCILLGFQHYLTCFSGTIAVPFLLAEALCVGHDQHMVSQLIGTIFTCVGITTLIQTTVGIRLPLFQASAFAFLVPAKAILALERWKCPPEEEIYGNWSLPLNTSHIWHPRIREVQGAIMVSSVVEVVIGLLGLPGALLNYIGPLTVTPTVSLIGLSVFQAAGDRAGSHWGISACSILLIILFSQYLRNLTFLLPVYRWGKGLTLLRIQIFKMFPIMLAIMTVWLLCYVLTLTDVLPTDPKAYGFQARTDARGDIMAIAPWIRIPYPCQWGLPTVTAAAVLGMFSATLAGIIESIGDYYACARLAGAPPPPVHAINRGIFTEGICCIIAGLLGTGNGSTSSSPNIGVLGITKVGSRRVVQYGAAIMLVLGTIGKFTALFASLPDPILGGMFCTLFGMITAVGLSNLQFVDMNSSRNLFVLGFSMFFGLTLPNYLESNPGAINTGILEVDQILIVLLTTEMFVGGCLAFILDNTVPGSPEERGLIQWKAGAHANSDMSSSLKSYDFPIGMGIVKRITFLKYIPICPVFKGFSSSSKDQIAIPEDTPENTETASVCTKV

Q: For `C[C@]12CC[C@@H]3c4ccc(O)cc4CC[C@H]3[C@@H]1CC[C@@H]2O` [17β-estadiol], which “inhibitory action for LAA transporter SVCT2” value (“inhibitory action” for short) (SVCT2 [1]) is on record?
A: very strong inhibitory action

Q: For `O=C1O[C@H]([C@@H](O)CO)C(O)=C1O` [LAA, L-ascorbic acid], which “D-dimer test for massive cell lysis” value (leukemic blast cells; LAA supplementation after chemotherapy (FIG. 3B)) is on record?
A: sharp increase

Q: What about the patients responding (leukemic blast cells; Phase I/II clinical trial, 16 evaluated patients, p=0.007) of the same molecule?
A: 8 out of 16

Q: And the “leukemic blast cells in peripheral blood” value (leukemic blast cells; after 10 days of LAA supplementation, relapse after cytotoxic chemotherapy (FIG. 3A))?
A: sharp decline

Q: What about the “frequency of platelet transfusion” value (leukemic blast cells; alternation of LAA supplementation and depletion, same patient (FIG. 2B)) of the same molecule?
A: marked reduction in the frequency of platelet transfusion

Q: And the “leukemic blast cell number (peripheral blood and bone marrow)” value (leukemic blast cells; during supplementation of LAA phase, intravenous, one patient (FIG. 2A))?
A: decline in leukemic blast cell number

Q: What about the spleen size (leukemic blast cells; during supplementation of LAA phase, one patient (FIG. 2A)) of the same molecule?
A: decline in spleen size

Q: And the “complete tumor regression, animals” value (sarcoma tumors; 0.3 mg/kg/day, up to 24 weeks)?
A: 55%

Q: And the tumor growth (sarcoma tumors; 10 mg/kg/day)?
A: tumor inhibition but no regression

Q: What about the tumor growth (sarcoma tumors; 1 g/kg/day) of the same molecule?
A: grew without sign of retardation

Q: What about the “peak concentrations without significant adverse effects” value ([2]; intravenous infusion) of the same molecule?
A: over 10 mMol

Q: And the blood levels ([2]; oral, up to 180 gram per day in divided doses)?
A: ≤ 200 µM

Q: And the “patients whose leukemic cells had the requirement of LAA for growth” value (human leukemic cells)?
A: ~50%

Q: With `Cl.N=c1c[n+](N2CCOCC2)[n-]o1` [SIN-1, 3-(4-Morpholinyl) sydnonimine hydrochloride] as the molecule, how does the “decrease in LAA uptake” value (SVCT2 [3]) read?
A: up to 40%

Q: For `O=C(O)Cc1ccccc1Nc1c(Cl)cccc1Cl` [diclofenac], which “inhibitory action” value (SVCT2 [1]) is on record?
A: very strong inhibitory action

Q: What about the “uptake of LAA via SVCT2” value (SVCT2 [1]) of the same molecule?
A: inhibit the uptake of LAA

Q: Which “inhibitory action” value (SVCT2 [1]) does the source give for `O=c1c(-c2ccc(O)cc2)coc2cc(O)cc(O)c12` [genistein] here?
A: very strong inhibitory action

Q: For `COc1ccc2c(c1)c(CC(=O)O)c(C)n2C(=O)c1ccc(Cl)cc1` [indomethacin], which “uptake of LAA via SVCT2” value (SVCT2 [1]) is on record?
A: inhibit the uptake of LAA

Q: For `O=c1c(O)c(-c2ccc(O)c(O)c2)oc2cc(O)cc(O)c12` [quercetin], which “inhibition of LAA transporter SVCT1(h)” value (SVCT1(h)) is on record?
A: about 80%

Q: And the “decrease of LAA transport SVCT2” value (SVCT2 [4])?
A: 80%

Q: And the “dose administered orally without side effects” value [5]?
A: 4 g

Q: What about the “inhibitory action” value (SVCT2 [1]) of the same molecule?
A: very strong inhibitory action
